Assay results as given in PubChem BioAssay (NCI).
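Following 48 hours of exposure in 96-well plates, responses at five concentrations were used to interpolate endpoints linearly. GI50 marks 50% less growth. At the TGI there is no net growth.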

Key:
Assay in all cases: growth of human tumour cells (NCI), 48 h
KM12 colon = system: KM12 colon
MCF7 breast = system: MCF7 breast
HOP-62 NSCLC = system: HOP-62 NSCLC
IGROV1 ovarian = system: IGROV1 ovarian
ACHN renal = system: ACHN renal
SR leukemia = system: SR leukemia
CAKI-1 renal = system: CAKI-1 renal
HL-60(TB) leukemia = system: HL-60(TB) leukemia
MOLT-4 leukemia = system: MOLT-4 leukemia
SK-MEL-28 melanoma = system: SK-MEL-28 melanoma
LOX IMVI melanoma = system: LOX IMVI melanoma
OVCAR-8 ovarian = system: OVCAR-8 ovarian
RPMI-8226 leukemia = system: RPMI-8226 leukemia
HCT-15 colon = system: HCT-15 colon
SF-268 CNS = system: SF-268 CNS
DU-145 prostate = system: DU-145 prostate
OVCAR-4 ovarian = system: OVCAR-4 ovarian
PC-3 prostate = system: PC-3 prostate
T-47D breast = system: T-47D breast
M14 melanoma = system: M14 melanoma
A498 renal = system: A498 renal
CCRF-CEM leukemia = system: CCRF-CEM leukemia
BT-549 breast = system: BT-549 breast
K-562 leukemia = system: K-562 leukemia
HCT-116 colon = system: HCT-116 colon
SF-295 CNS = system: SF-295 CNS
UACC-257 melanoma = system: UACC-257 melanoma
EKVX NSCLC = system: EKVX NSCLC
UACC-62 melanoma = system: UACC-62 melanoma
HT29 colon = system: HT29 colon
SNB-19 CNS = system: SNB-19 CNS
OVCAR-5 ovarian = system: OVCAR-5 ovarian
OVCAR-3 ovarian = system: OVCAR-3 ovarian
786-0 renal = system: 786-0 renal
SW-620 colon = system: SW-620 colon
U251 CNS = system: U251 CNS
NCI-H460 lung = system: NCI-H460 lung
MDA-MB-231 breast = system: MDA-MB-231 breast
HCC-2998 colon = system: HCC-2998 colon
SK-MEL-5 melanoma = system: SK-MEL-5 melanoma
A549 NSCLC = system: A549 NSCLC
UO-31 renal = system: UO-31 renal
MALME-3M melanoma = system: MALME-3M melanoma
TK-10 renal = system: TK-10 renal
COLO 205 colon = system: COLO 205 colon
SF-539 CNS = system: SF-539 CNS
SN12C renal = system: SN12C renal
HOP-92 NSCLC = system: HOP-92 NSCLC
HS 578T breast = system: HS 578T breast
NCI-H522 lung = system: NCI-H522 lung
NCI-H226 lung = system: NCI-H226 lung
NCI-H23 lung = system: NCI-H23 lung
SK-MEL-2 melanoma = system: SK-MEL-2 melanoma
NCI/ADR-RES ovarian = system: NCI/ADR-RES ovarian
SK-OV-3 ovarian = system: SK-OV-3 ovarian

In the case of `COc1ccc(C(=O)c2cc3c(N)c(C(=O)Nc4cccc(Cl)c4C)sc3nc2C)cc1`, the GI50 (KM12 colon) is reported as 106 nM, the TGI (KM12 colon) is reported as > 25000 nM and the GI50 (MCF7 breast) is reported as 93.2 nM. For the same molecule, the TGI (MCF7 breast) was > 25000 nM, the GI50 (HOP-62 NSCLC) was 154 nM and the TGI (HOP-62 NSCLC) was > 25000 nM. The GI50 (IGROV1 ovarian) was 145 nM, the TGI (IGROV1 ovarian) was > 25000 nM and the GI50 (ACHN renal) was 202 nM. The TGI (ACHN renal) was > 25000 nM, the GI50 (SR leukemia) was 61.3 nM and the TGI (SR leukemia) was 511 nM. For the same molecule, the GI50 (CAKI-1 renal) was 99.5 nM, the TGI (CAKI-1 renal) was > 25000 nM and the GI50 (HL-60(TB) leukemia) was 75.9 nM. The TGI (HL-60(TB) leukemia) was 226 nM, the GI50 (MOLT-4 leukemia) was 153 nM and the TGI (MOLT-4 leukemia) was > 25000 nM. The GI50 (SK-MEL-28 melanoma) was > 25000 nM, the TGI (SK-MEL-28 melanoma) was > 25000 nM and the GI50 (LOX IMVI melanoma) was 154 nM. The TGI (LOX IMVI melanoma) was > 25000 nM, the GI50 (OVCAR-8 ovarian) was 125 nM and the TGI (OVCAR-8 ovarian) was > 25000 nM. For the same molecule, the GI50 (RPMI-8226 leukemia) was 91.8 nM, the GI50 (HCT-15 colon) was 101 nM and the TGI (HCT-15 colon) was > 25000 nM. For the same molecule, the GI50 (SF-268 CNS) was 419 nM, the TGI (SF-268 CNS) was > 25000 nM and the GI50 (DU-145 prostate) was 105 nM. The TGI (DU-145 prostate) was > 25000 nM, the GI50 (OVCAR-4 ovarian) was 851 nM and the TGI (OVCAR-4 ovarian) was > 25000 nM. The GI50 (PC-3 prostate) was 122 nM, the TGI (PC-3 prostate) was > 25000 nM and the GI50 (T-47D breast) was 153 nM. The TGI (T-47D breast) was > 25000 nM, the GI50 (M14 melanoma) was 71.5 nM and the TGI (M14 melanoma) was > 25000 nM. For the same molecule, the GI50 (A498 renal) was 69.1 nM, the TGI (A498 renal) was 558 nM and the GI50 (CCRF-CEM leukemia) was 88.9 nM. For the same molecule, the TGI (CCRF-CEM leukemia) was > 25000 nM, the GI50 (BT-549 breast) was 250 nM and the TGI (BT-549 breast) was > 25000 nM. The GI50 (K-562 leukemia) was 90.1 nM, the TGI (K-562 leukemia) was > 25000 nM and the GI50 (HCT-116 colon) was 98.9 nM. The TGI (HCT-116 colon) was > 25000 nM, the GI50 (SF-295 CNS) was 83.3 nM and the TGI (SF-295 CNS) was > 25000 nM. For the same molecule, the GI50 (UACC-257 melanoma) was > 6120 nM, the TGI (UACC-257 melanoma) was > 25000 nM and the GI50 (EKVX NSCLC) was 134 nM. For the same molecule, the TGI (EKVX NSCLC) was > 25000 nM, the GI50 (UACC-62 melanoma) was 120 nM and the TGI (UACC-62 melanoma) was > 25000 nM. For the same molecule, the GI50 (HT29 colon) was 86.3 nM, the TGI (HT29 colon) was > 25000 nM and the GI50 (SNB-19 CNS) was 117 nM. The TGI (SNB-19 CNS) was > 25000 nM, the GI50 (OVCAR-5 ovarian) was 266 nM and the TGI (OVCAR-5 ovarian) was > 25000 nM. For the same molecule, the GI50 (OVCAR-3 ovarian) was 87.2 nM, the TGI (OVCAR-3 ovarian) was > 25000 nM and the GI50 (786-0 renal) was 187 nM. The TGI (786-0 renal) was > 25000 nM, the GI50 (SW-620 colon) was 105 nM and the TGI (SW-620 colon) was > 25000 nM. For the same molecule, the GI50 (U251 CNS) was 104 nM, the TGI (U251 CNS) was > 25000 nM and the GI50 (NCI-H460 lung) was 91.7 nM. For the same molecule, the TGI (NCI-H460 lung) was > 25000 nM, the GI50 (MDA-MB-231 breast) was 142 nM and the TGI (MDA-MB-231 breast) was > 25000 nM. The GI50 (HCC-2998 colon) was 280 nM, the TGI (HCC-2998 colon) was > 25000 nM and the GI50 (SK-MEL-5 melanoma) was 109 nM. The TGI (SK-MEL-5 melanoma) was 2450 nM, the GI50 (A549 NSCLC) was 136 nM and the TGI (A549 NSCLC) was > 25000 nM. The GI50 (UO-31 renal) was 634 nM, the TGI (UO-31 renal) was > 25000 nM and the GI50 (MALME-3M melanoma) was 205 nM. The TGI (MALME-3M melanoma) was > 25000 nM, the GI50 (TK-10 renal) was > 25000 nM and the TGI (TK-10 renal) was > 25000 nM. For the same molecule, the GI50 (COLO 205 colon) was 109 nM, the TGI (COLO 205 colon) was 7130 nM and the GI50 (SF-539 CNS) was 67.9 nM. For the same molecule, the TGI (SF-539 CNS) was 169 nM, the GI50 (SN12C renal) was 155 nM and the TGI (SN12C renal) was > 25000 nM. The GI50 (HOP-92 NSCLC) was 292 nM, the TGI (HOP-92 NSCLC) was 6670 nM and the GI50 (HS 578T breast) was 83.2 nM. The TGI (HS 578T breast) was > 25000 nM, the GI50 (NCI-H522 lung) was 62.3 nM and the TGI (NCI-H522 lung) was > 6780 nM. The GI50 (NCI-H226 lung) was 277 nM, the TGI (NCI-H226 lung) was > 25000 nM and the GI50 (NCI-H23 lung) was 173 nM. The TGI (NCI-H23 lung) was > 25000 nM, the GI50 (SK-MEL-2 melanoma) was 215 nM and the TGI (SK-MEL-2 melanoma) was > 25000 nM. For the same molecule, the GI50 (NCI/ADR-RES ovarian) was 86 nM, the TGI (NCI/ADR-RES ovarian) was > 25000 nM and the GI50 (SK-OV-3 ovarian) was 161 nM. The TGI (SK-OV-3 ovarian) was > 25000 nM.
